Read-outs that look alike come from different tables or passages of the source.
What was measured:
SH-SY5Y cells = experiment: Western blot of SH-SY5Y cell lysates; assay type: cell-based
Procedure: Cell culture: SH-SY5Y neuroblastoma cells were cultured at 37° C., 5% CO2., in Dulbecco's Modified Eagle Medium/Ham's F-12 nutrient mixture (DMEM/F12) (Invitrogen, Carlsbad, Calif.) supplemented with 10% heat-inactivated fetal bovine serum containing 100 units/ml penicillin, 100 μg/ml streptomycin. Primary cortical neuron cultures were derived from embryo day 18 (E18) from ICR mice. The dissociated cells were plated on glass cover slips coated with poly-D-lysine in Neurobasal medium supplemented with 2% B27 (Invitrogen), 100 units/ml penicillin, 100 μg/ml streptomycin, and 2 mM L-glutamine. Primary NSCs from normal mice were isolated from the subventricular zone (SVZ) of 8 week-old C57BL/6 mice brain. NSCs from adult Tg2576 mice brain were obtained from Seoul National University Hospital. The neurospheres were cultured as previously described (M. Y. Kim, B. S. Moon, K. Y. Choi, Isolation and maintenance of cortical neural progenitor cells in vitro. Methods Mol Biol 1018, 3-10 (2013)). For neurosphere culture from normal mice, the cells were dissociated from brain tissue and grown in N2 medium in 25 cm^2 flasks (SPL, Gyeonggi-do, Korea) in suspension. bFGF (20 ng/ml, Peprotech, Princeton, N.J.) and human EGF (20 ng/ml, Peprotech) were added to the media to allow the cells to form neurospheres. For analyses, NSCs were cultured as a monolayer. For differentiation of NSCs, the neurospheres were dissociated with TrypLE (Invitrogen), plated on 15 μg/ml poly-L-ornithine-(Sigma-Aldrich, St. Louis, Mo.) and 10 μg/ml fibronectin (Gibco)-coated plates, and cultured in bFGF- and EGF-depleted N2 medium for 2 days. For neurosphere culture from Tg2576 mice, the cells were grown in DMEM/F12 supplemented with B27 supplements in 75 cm^2 flasks (SPL) in suspension. bFGF (10 ng/ml) and human EGF (10 ng/ml) were added to the media to allow the cells to form neurospheres. For inducing differentiation and AP expression, the neurospheres were dissociated with pipetting, plated on 15 μg/ml poly-L-ornithine- and 10 μg/ml fibronectin (Gibco)-coated plates, and cultured in bFGF- and EGF-depleted medium for 2 days.
Lysates were centrifuged at 13,000 rpm for 20 min at 4° C., and the protein content in the supernatant was determined using the Bradford assay (Bio-rad, Hercules, Calif.). For subcellular fractionation, cells were lysed with lysis buffer (250 mM Sucrose, 20 mM HEPES, pH 7.4, 10 mM KCl, 1.5 mM MgCl2, 1 mM EGTA, 1 mM EDTA, 1 mM DTT) containing protease inhibitor for 30 min on ice, followed by centrifugation at 720 g for 5 min at 4° C. Supernatants were centrifuged at 15,000 rpm for 10 min at 4° C., and the resulting supernatant was used as the cytosol fraction. After centrifugation at 720 g for 5 min, pellets were washed with lysis buffer and dissolved in nuclear lysis buffer (50 mM Tris HCl, pH 8.0, 150 mM NaCl, 1% NP40, 0.5% sodium deoxycholate, 0.1% SDS, 10% glycerol) as the nuclear fraction. Protein from each sample was subjected to 8%˜15% SDS-PAGE, and the resolved proteins were transferred to nitrocellulose or polyvinylidene fluoride membrane. The membranes were blocked with 5% nonfat milk powder in Tris-buffered saline/Tween 20 (TBST) for 1 h at room temperature, then incubated with anti-phospho-ERK (Cell signaling), anti-ERK (Cell signaling), anti-LAMP1 (Abcam), anti-LC3 (Cell signaling), anti-cathepsin B (Cell signaling), anti-p62 (Cell signaling), anti-p62 (5114, Cell signaling), anti-phospho-mTOR (5536, Cell signaling), anti-mTOR (2983, Cell signaling), anti-phospho-ULK1 (14202, Cell signaling), anti-ULK1 (8054, Cell signaling), anti-TFEB (852501, Biolegend), and anti-GAPDH (Cell signaling) overnight at 4° C.

5XFAD mice = settings: for decrease of plasma cathepsin B level compared to vehicle treated 5XFAD mice: 8-month-old 5XFAD mice, 3 months oral
[1] = SH-SY5Y cells treated with Aβ1-42
[2] = SH-SY5Y cells, in the presence of Aβ1-42 oligomers

## CC(=O)Nc1cccc(-n2c(=O)n(C3CC3)c(=O)c3c(Nc4ccc(I)cc4F)n(C)c(=O)c(C)c32)c1 [trametinib]
SH-SY5Y cells; [1]
  increase of LC3-II/LC-I level compared to Aβ1-42 treated alone cells: 65%
  increase of mature cathepsin B level compared to Aβ1-42 treated alone cells: 44%
SH-SY5Y cells; [2]
  nuclear translocation of TFEB: induced nuclear translocation of TFEB
  p62 as a marker of autophagic flux: Degradation of p62
  phosphorylation of mTOR and ULK1 on Ser758: inhibited the phosphorylation
5XFAD mice; 0.05 mg/kg/day
  decrease of plasma cathepsin B level compared to vehicle treated 5XFAD mice: 56.16%
5XFAD mice; 0.1 mg/kg/day
  decrease of plasma cathepsin B level compared to vehicle treated 5XFAD mice: 99.2%
5XFAD mice; 13-month-old 5XFAD mice, 0.1 mg/kg/day, 1 month oral
  plasma cathepsin B level compared to 5XFAD-vehicle group: decreasing trend

From patent US20220265657A1, “ADMINISTRATION METHOD AND DOSAGE REGIMEN FOR TREATMENT OF NEURODEGENERATIVE DISEASES USING TRAMETINIB AND MARKERS” (GENUV INC., priority 2019, published 2022)
